The values that follow are results of earlier work, collected in US20070225337A1, “Novel Co-Precipitate of Amorphous Rosiglitazone” (SANDOZ AG, priority 2004, published 2007).

For series [1] the following is noted: compared with the corresponding free base.

The structures appear in SMILES notation.

On to `CN(CCOc1ccc(CC2SC(=O)NC2=O)cc1)c1ccccn1.O=C(O)/C=C\C(=O)O` (centres unmarked) [Rosiglitazone maleate, 5-[4-[2-[N-methyl-N-(2-pyridyl)amino]ethoxy]benzyl]thiazolidine-2,4-dione maleate], for which the “stability in the solid form” value was “good stability in the solid form”. The solubility in water entry in series [1] was “significantly more soluble in water than the corresponding free base”.
